Assay results taken from patent US20240300980A1, “HETEROCYCLIC COMPOUNDS AS KRAS INHIBITOR, AND PREPARATION THEREFOR AND USE THEREOF IN TREATMENT” (SHANGHAI KECHOW PHARMA, INC., priority 2021, published 2024).
pIC50: −log10 of the molar value.

Tested on: AGS cells (KRAS^G12D)
Assay: Detection of cell proliferation in vitro by MTT/MTS method (cell activity experiment)
Type: cell-based
Settings: Homo sapiens, AGS, 72 h, AGS cells; MTT/MTS; 3 days of drug treatment; read-out: AGS IC50
Method in brief: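 After 3-day compound exposure (final DMSO 0.5%), viability of AGS (KRAS G12D) cells, plated 1000/well one day before dosing, was measured at 490 nm following 4 h MTT or MTS incubation. IC50 was fitted from dose–effect curves relative to DMSO-treated wells.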

Structure (SMILES) | pIC50
C#Cc1c(F)ccc2cc(O)cc(-c3ncc4c(N(CCNC)C5CC5)nc(OC[C@@]56CCCN5C[C@H](F)C6)nc4c3F)c12 [Example 219, 4-(4-(cyclopropyl(2-(methyl-amino)ethyl)amino)-8-fluoro-2-(((2R,7aS)-2-fluorotetrahydro-1H-pyrrolizin-7a(5H)-yl)methoxy)pyrido[4,3-d]pyrimidin-7-yl)-5-ethynyl-6-fluoronaphthalen-2-ol] | < 5.60
C#Cc1c(F)ccc2cccc(N3CCc4c(nc(OC[C@@]56CCCN5C[C@H](COC(=O)N(C)C)C6)nc4N4C[C@H]5CC[C@@H](C4)N5)C3)c12 [Example 211, ((2R,7aS)-7a-(((4-((1R,5S)-3,8-diazabicyclo[3.2.1]octan-3-yl)-7-(8-ethynyl-7-fluoronaphthalen-1-yl)-5,6,7,8-tetrahydropyrido[3,4-d]pyrimidin-2-yl)oxy)methyl)hexahydro-1H-pyrrolizin-2-yl)methyl dimethylcarbamate] | 7.26
[O-][S+]1C2CCC1CN(c1nc(OC[C@@]34CCCN3C[C@H](F)C4)nc3c(F)c(-c4cc(O)cc5ccc(F)c(F)c45)ncc13)C2 (stereo partly drawn) [Example 28, (1R,5S,8R)-3-(7-(7,8-difluoro-3-hydroxynaphthalen-1-yl)-8-fluoro-2-(((2R, 7aS)-2-fluorotetrahydro-1H-pyrrolizin-7a(5H)-yl)methoxy)pyrido[4,3-d]pyrimidin-4-yl)-8-thia-3-azabicyclo [3.2.1]octane 8-oxide] | < 6.00
C#Cc1c(F)ccc2cc(O)cc(-c3ccc4c(N5C[C@H]6CC[C@@H](C5)N6)nc(OC[C@@]56CCCN5C[C@H](F)C6)nc4c3OC3CC3)c12 [Example 327, 4-(4-((1R,5S)-3,8-diazabicyclo[3.2.1]octan-3-yl)-8-cyclopropoxy-2-(((2R,7aS)-2-fluorotetrahydro-1H-pyrrolizin-7a(5H)-yl)methoxy)quinazolin-7-yl)-5-ethynyl-6-fluoronaphthalen-2-ol] | 6.64
C#Cc1nccc2cc(O)cc(-c3ncc4c(N5C[C@H]6CC[C@@H](C5)N6)nc(OC[C@@]56CCCN5C[C@H](F)C6)nc4c3F)c12 [Example 339, 8-(4-((1R,5S)-3,8-diazabicyclo[3.2.1]octan-3-yl)-8-fluoro-2-(((2R,7aS)-2-fluorotetrahydro-1H-pyrrolizin-7a(5H)-yl)methoxy)pyrido[4,3-d]pyrimidin-7-yl)-1-ethynylisoquinolin-6-ol] | 7.82
C#Cc1c(F)ccc2cc(O)cc(-c3ncc4c(N5C[C@H]6CC[C@@H](C5)N6)nc(OC[C@@]56CCCN5C[C@H](F)C6)nc4c3O)c12 [Example 332, 4-((1R,5S)-3,8-diazabicyclo[3.2.1]octan-3-yl)-7-(8-ethynyl-7-fluoro-3-hydroxynaphthalen-1-yl)-2-(((2R,7aS)-2-fluorotetrahydro-1H-pyrrolizin-7a(5H)-yl)methoxy)pyrido[4,3-d]pyrimidin-8-ol] | < 5.60
C#Cc1c(F)ccc2cc(O)cc(N3CCc4c(nc(OC[C@@]56CCCN5C[C@H](F)C6)nc4N4C[C@H]5CC[C@@H](C4)N5)C3)c12 [Example 202, 4-(4-((1R,5S)-3,8-diazabicyclo[3.2.1]octan-3-yl)-2-(((2R,7aS)-2-fluorotetrahydro-1H-pyrrolizin-7a(5H)-yl)methoxy)-5,8-dihydropyrido[3,4-d]pyrimidin-7(6H)-yl)-5-ethynyl-6-fluoronaphthalen-2-ol] | 8.12
CC[C@H]1CCCc2cc(O)cc(-c3ncc4c(N5CC6CCC(C5)N6)nc(OC[C@@]56CCCN5C[C@H](F)C6)nc4c3F)c21 (single isomer, unassigned) [Example 229, (S)-4-(4-((1R,5S)-3,8-diazabicyclo[3.2.1]octan-3-yl)-8-fluoro-2-(((2R,7aS)-2-fluorotetrahydro-1H-pyrrolizin-7a(5H)-yl)methoxy)pyrido[4,3-d]pyrimidin-7-yl)-5-ethyl-5,6,7,8-tetrahydronaphthalen-2-ol or (R)-4-(4-((1R,5S)-3,8-diazabicyclo[3.2.1]octan-3-yl)-8-fluoro-2-(((2R,7aS)-2-fluorotetrahydro-1H-pyrrolizin-7a(5H)-yl)methoxy)pyrido[4,3-d]pyrimidin-7-yl)-5-ethyl-5,6,7,8-tetrahydronaphthalen-2-ol] | 8.60
Oc1cc(-c2ccc3c(N4C[C@H]5CC[C@@H](C4)S5)nc(OC[C@@]45CCCN4C[C@H](F)C5)nc3c2F)c2c(F)cccc2c1 [Example 167, 4-(4-((1R,5S)-8-thia-3-azabicyclo[3.2.1]octan-3-yl)-8-fluoro-2-(((2R,7aS)-2-fluorotetrahydro-1H-pyrrolizin-7a(5H)-yl)methoxy)quinazolin-7-yl)-5-fluoronaphthalen-2-ol] | 6.51
C#Cc1cccc2cc(O)cc(-c3ncc4c(N5CC6CCC(C5)C6F)nc(OC[C@@]56CCCN5C[C@H](F)C6)nc4c3F)c12 (stereo partly drawn) [Example 36, 5-ethynyl-4-(8-fluoro-4-((1R,5S,8R)-8-fluoro-3-azabicyclo[3.2.1]octan-3-yl)-2-(((2R,7aS)-2-fluorotetrahydro-1H-pyrrolizin-7a(5H)-yl)methoxy)pyrido[4,3-d]pyrimidin-7-yl) naphthalen-2-ol] | < 5.60
CCc1ccc2cc(O)cc(-c3c4c(c5c(N6C[C@H]7CC[C@@H](C6)N7)nc(OC[C@@]67CCCN6C[C@H](F)C7)nc5c3F)OCO4)n12 [Example 397, 5-(9-((1R,5S)-3,8-diazabicyclo[3.2.1]octan-3-yl)-5-fluoro-7-(((2R,7aS)-2-fluorotetrahydro-1H-pyrrolizin-7a(5H)-yl)methoxy)-[1,3]dioxolo[4,5-f]quinazolin-4-yl)-3-ethylindolizin-7-ol] | 7.15
C#Cc1c(F)ccc2cc(O)cc(-c3ncc4c(N5C[C@H]6CC[C@@H](C5)N6)nc(OCC56CC5CN(C)C6)nc4c3F)c12 (stereo partly drawn) [Example 76, 4-(4-((1R,5S)-3,8-diazabicyclo[3.2.1]octan-3-yl)-8-fluoro-2-((3-methyl-3-azabicyclo [3.1.0]hexan-1-yl)methoxy)pyrido[4,3-d]pyrimidin-7-yl)-5-ethynyl-6-fluoronaphthalen-2-ol] | < 5.60
Oc1cc2c(c(-c3ccc4c(N5C[C@H]6CC[C@@H](C5)N6)nc(OC[C@@]56CCCN5C[C@H](F)C6)nc4c3F)c1)C=CCC2 [Example 305, 4-(4-((1R,5S)-3,8-diazabicyclo[3.2.1]octan-3-yl)-8-fluoro-2-(((2R,7aS)-2-fluorotetrahydro-1H-pyrrolizin-7a(5H)-yl)methoxy)quinazolin-7-yl)-7,8-dihydronaphthalen-2-ol] | 6.99
Oc1cc(-c2ccc3c(N4C[C@H]5CC[C@@H](C4)N5)nc(OC[C@@]45CCCN4C[C@H](F)C5)nc3c2F)c2c(F)cccc2c1 [Example 95, 4-(4-((1R,5S)-3,8-diazabicyclo[3.2.1]octan-3-yl)-8-fluoro-2-(((2R,7aS)-2-fluorotetrahydro-1H-pyrrolizin-7a(5H)-yl)methoxy)quinazolin-7-yl)-5-fluoronaphthalen-2-ol] | 7.87
CCc1c(F)ccc2cc(O)cc(-c3ccc4c(N5C[C@H]6CC[C@@H](C5)N6)nc(OC[C@]56CCCN5[C@@H](COC(=O)N(C)C)CC6)nc4c3F)c12 [Example 97, ((3R,7aR)-7a-(((4-((1R,5S)-3,8-diazabicyclo[3.2.1]octan-3-yl)-7-(8-ethyl-7-fluoro-3-hydroxynaphthalen-1-yl)-8-fluoroquinazolin-2-yl)oxy)methyl)hexahydro-1H-pyrrolizin-3-yl) methyl dimethylcarbamate] | 7.74
